Assay results taken from patent publication US20220280594A1, “APPLICATION OF POLYPEPTIDE OR DERIVATIVE THEREOF” (CHENGDU HUITAI BIOMEDICINE CO., LTD., priority 2019, published 2022).
Ends that are not written are not given here. PEG = not defined here

Key:
[1] = test system: human colon cancer cells (HCT-116); assay: scratch assay, migration of HCT-116 cells; format: cell-based; conditions: HCT-116, 10 μM, 48 hours; control group 47.78 ± 6.07
Procedure, shortened: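 Confluent HCT-116 monolayers were scratched, washed and cultured 48 h in 2% FBS medium with peptide at 10 μM versus PBS control, triplicate wells. Migration rate (%) = (original minus current scratch width)/original width × 100, from at least 3 images per well.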

[2] = test system: human melanoma cells (A375); assay: scratch assay, migration of A375 cells; format: cell-based; conditions: A375, 10 μM, 48 hours; control group 44.03 ± 6.21
Procedure, shortened: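 Monolayers scratched, washed with PBS and cultured 48 hours in 2% FBS medium with polypeptides N1-N54 at 10 μM or PBS control, three wells per group. Migration rate (%) = (original − current scratch width)/original width×100, from imaged scratch widths.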

[3] = test system: human breast cancer cells (MDA-MB-231); assay: scratch assay, migration of MDA-MB-231 cells; format: cell-based; conditions: MDA-MB-231, 10 μM, 48 hours; control group 36.19 ± 5.15
Procedure, shortened: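 MDA-MB-231 monolayers (1-2×10^5 cells/well) were scratched, then kept 48 h in medium with 2% FBS containing polypeptide at 10 μM, with a PBS control, in triplicate wells. Migration rate (%) was taken from scratch width: (original − current)/original ×100.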

[4] = test system: human breast cancer cells (MCF-7); assay: scratch assay, migration of MCF-7 cells; format: cell-based; conditions: MCF-7, 10 μM, 48 hours; control group 30.97 ± 1.79
Procedure, shortened: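 MCF-7 monolayers scratched, then cultured 48 hours in 2% FBS medium with test peptide at 10 μM versus PBS control, triplicate wells. Migration rate (%) = (original − current scratch width)/original width × 100, measured from images.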

[5] = test system: human prostate cancer cells (22RV1); assay: scratch assay, migration of 22RV1 cells; format: cell-based; conditions: 22RV1, 10 μM, 48 hours; control group 25.41 ± 5.01
Procedure, shortened: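 22RV1 monolayers (seeded 1-2×10^5 cells/well) were scratched, washed, then given 2% FBS medium with 10 μM polypeptide or PBS, triplicate wells, for 48 h. Migration rate (%) = (original − current scratch width)/original width ×100, from ≥3 images per well.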

[6] = test system: human liver cancer cells (HepG2); assay: scratch assay, migration of HepG2 cells; format: cell-based; conditions: HepG2, 10 μM, 48 hours; control group 71.01 ± 6.63
Procedure, shortened: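 HepG2 monolayers scratched, then cultured 48 h in 2% FBS medium with test polypeptides at 10 μM versus PBS control, triplicate wells. Migration rate (%) computed from original versus current scratch width in images.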

[7] = test system: human lung cancer cells (95D); assay: scratch assay, migration of 95D cells; format: cell-based; conditions: 10 μM, 48 hours, control group 55.3 ± 3.19
Procedure, shortened: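 Confluent 95D monolayers were scratched, washed with PBS and cultured 48 h in 2% FBS medium containing peptide (10 μM) or PBS control, in triplicate wells. Scratch width was measured on images; migration rate (%) = (original width − current width)/original width × 100.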

[8] = test system: human non-small cell lung cancer cells (A549); assay: scratch assay, migration of A549 cells; format: cell-based; conditions: A549, 10 μM, 48 hours; control group 75.31 ± 8.19
Procedure, shortened: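 Confluent A549 monolayers in 24-well plates were scratched, washed with PBS, then cultured 48 h in 2% FBS medium with peptide at 10 μM or PBS control, triplicate wells. Scratch width measured from images; migration rate (%) = (original − current width)/original width × 100.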

[9] = test system: human pharyngeal squamous-cell carcinoma cells (Fadu); assay: scratch assay, migration of Fadu cells; format: cell-based; conditions: 10 μM, 48 hours, control group 28.76 ± 4.08
Procedure, shortened: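 Confluent Fadu monolayers scratched, then cultured 48 h with 10 μM polypeptide in medium with 2% FBS; PBS control, triplicate wells. Migration rate (%) = (original − current scratch width)/original width × 100, from ≥3 images per well.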

[10] = test system: human lung cancer cells (A549) subcutaneous xenograft; assay: lung cancer subcutaneous xenograft animal model, intravenous injection; format: in vivo, mice (BALB/c-nu/nu); conditions: intravenous 60 mg/kg once every other day, 20 days; for Weight of tumor (g) (mean ± SD): control 2.53 ± 0.17; for Volume of tumor (mm^3) (mean ± SD): control 3373.26 ± 581.44
Procedure, shortened: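 Female BALB/c-nu/nu mice (4-6 weeks) inoculated subcutaneously with ~2×10^6 A549 cells; grouped once tumours exceeded 100 mm^3. Peptides given intravenously at 60 mg/kg for 20 days versus model control. Tumour weight and volume measured at dissection; body weight recorded every other day.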

[11] = test system: human lung squamous carcinoma cells (NCI-H226); assay: scratch assay, migration of NCI-H226 cells; format: cell-based; conditions: NCI-H226, 10 μM, 48 hours; control group 65.31 ± 3.19
Procedure, shortened: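 A straight scratch was made in confluent NCI-H226 monolayers (1-2×10^5 cells/well). Cells were then kept 48 h in 2% FBS medium with 10 μM polypeptide or PBS control, triplicate wells. Migration rate (%) = (original − current scratch width)/original width ×100, from imaged scratch widths.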

| Substance | Migration rate (%) (mean ± SD, P) [1] | Migration rate (%) (mean ± SD, P) [2] | Migration rate (%) (mean ± SD, P) [3] | Migration rate (%) (mean ± SD, P) [4] | Migration rate (%) (mean ± SD, P) [5] | Migration rate (%) (mean ± SD, P) [6] | Migration rate (%) (mean ± SD, P) [7] | Migration rate (%) (mean ± SD, P) [8] | Migration rate (%) (mean ± SD, P) [9] | Weight of tumor (g) (mean ± SD) [10] | Volume of tumor (mm^3) (mean ± SD) [10] | Migration rate (%) (mean ± SD, P) [11] |
| --- | --- | --- | --- | --- | --- | --- | --- | --- | --- | --- | --- | --- |
| N38: SEQ ID NO: 1 with one amino acid added at each terminal and PEG modification at the carboxyl terminal (FYRVRFLAKENVTQDAEDNC-{PEG}; reading uncertain) | 5.97 ± 2.44,*** % | 15.57 ± 3.65,*** % | 18.99 ± 3.25,* % | 6.93 ± 2.24,** % | 7.73 ± 1.58,** % | 12.81 ± 7.32,*** % | 37.60 ± 3.67,** % | 46.92 ± 4.49,** % | 18.18 ± 3.61,* % | 0.71 ± 0.27 | 927.9 ± 205.31 | 47.66 ± 6.39,* % |
| N50: SEQ ID NO: 1 with N18R, addition of 2 amino acid at the carboxyl terminal, PEG modification at the amino terminal ({PEG}-YRVRFLAKENVTQDAEDRCT; reading uncertain) | 17.04 ± 4.96,** % | 15.97 ± 2.33,** % | 14.46 ± 5.73,** % | 6.83 ± 4.55,** % | 6.20 ± 3.31,** % | 16.03 ± 4.37,*** % | 31.05 ± 4.32,** % | 57.74 ± 4.39,* % | 5.44 ± 1.44,*** % | 0.85 ± 0.27 | 1463.11 ± 472.43 | 33.20 ± 3.59,** % |
| N51: SEQ ID NO: 1 with A15R, one amino acid added at each terminal, PEG modification at the amino terminal ({PEG}-FYRVRFLAKENVTQDREDNC; reading uncertain) | 16.11 ± 3.20,** % | 17.96 ± 3.20,** % | 14.5 ± 2.68,** % | 8.56 ± 4.18,** % | 5.23 ± 2.42,** % | 28.61 ± 5.89,** % | 30.04 ± 5.08,** % | 53.59 ± 5.62,* % | 8.71 ± 1.79,*** % | 0.75 ± 0.37 | 1412.56 ± 599.92 | 33.16 ± 4.43,** % |
| N45: SEQ ID NO: 1 with V11R, deletion of positions 1-5 and 15-18, PEG modification at the carboxyl terminal (LAKENRTQD-{PEG}; reading uncertain) | 28.34 ± 2.87,** % | 18.79 ± 2.28,** % | 13.02 ± 4.54,** % | 17.06 ± 2.87,* % | 11.63 ± 2.82,* % | 52.98 ± 4.08,* % | 33.76 ± 5.38,** % | 56.03 ± 4.21,* % | 9.34 ± 2.86,*** % | 0.97 ± 0.28 | 1204.87 ± 212.94 | 23.76 ± 5.38,*** % |
| N24: SEQ ID NO: 1 with substitution A7R, deletion of positions 1-2 and of position 18 (VRFLRKENVTQDAED) | 12.14 ± 2.49,*** % | 15.79 ± 4.16,** % | 20.97 ± 3.37,* % | 9.43 ± 1.12,** % | 8.44 ± 1.63,** % | 16.38 ± 6.48,*** % | 35.78 ± 4.79,** % | 31.05 ± 3.60,** % | 14.07 ± 5.12,* % | 0.81 ± 0.25 | 1099.3 ± 512.53 | 15.74 ± 8.70,*** % |
